The values below come from US8772275B2, “Mediators of hedgehog signaling pathways, compositions and uses related thereto” (Curis, Inc., priority 2001, dated 2014).

Common to all, as to type: cell-based
For assay [1], the system named is Hedgehog pathway. Nature of the assay: Gli-Luc reporter assay in 10T1/2(s12) cells, OCT-SHH stimulated. The settings on record: compounds E-V: not from the human-based assay; Gli-Luc assay in 10T1/2(s12) cells. The method, then: (§1) Compounds to be tested are dissolved in DMSO to a concentration of 10 mM, and stored at −20° C. To activate the Hedgehog pathway in the assay cells, an octylated (lipid-modified) form of the N-terminal fragment of the Sonic Hedgehog protein (OCT-SHH) is used. This N-terminal SHH fragment is produced bacterially. See, for example, Taylor F R, et al., Biochemistry 2001, 40, 4359-71.
(§2) Compounds may be tested in the “Gli-Luc” assay below, using the cell line 10T1/2(s12), wherein the cells contain a Hedgehog-responsive reporter construct utilizing Luciferase as the reporter gene. In this way, Hedgehog pathway signaling activity can be measured via the Gli-Luc response.
(§3) 10t1/2(s12) cells are plated in a 96-well micro-titer plate (MTP) at 20,000 cells/well in full medium [DMEM with […]]. Then plates are placed in the incubator for incubation overnight (O/N), at 37° C. and 5% CO2. After 24 h, the medium is replaced with Luciferase-assay medium (DMEM with 0.5% FBS). Compounds are thawed and diluted in assay medium at 3:1000 (about 300-fold) resulting in a starting concentration of about 0.0003 μM to 30 μM.
(§4) Subsequently, 150 μl each sample is added to the first wells (in triplicate). The MTP samples are then diluted at 3-fold dilutions to a total of seven wells, ultimately resulting in a regiment of seven dilutions in triplicate, for each compound. Next, the protein ligand OCT-SHH is diluted in Luciferase-assay medium and added to each well at a final concentration of […] Plates are then returned to the incubator for further incubation O/N, at 37° C. and 5% CO2. After about 24 h, plates are removed from the incubator and the medium is aspirated/discarded. Wells are washed once with assay buffer [PBS+1 mM Mg^2+ and 1 mM Ca^2+]. Then 50 μl of assay buffer is added to each well. The Luciferase assay reagent is prepared as described by the vendor (LucLite kit from Packard), and 50 μl is added to each well. Plates are incubated at room temperature (RT) for about 30 minutes after which the signals are read, again at RT, on a Topcount (Packard).
(A reporter such as luciferase makes a cellular process visible.)

Assay [2] deals with Hedgehog pathway. Nature of the assay: Gli-Luc reporter assay in human embryonic palatal mesenchyme cells, OCT-SHH stimulated. The settings on record: human-based Gli-Luc assay, OCT-SHH 1 μg/ml. On the procedure:
as §1, §2, §3, §4
Similar assays were performed using human cell lines (specifically, human embryonic palatal mesenchyme cells, modified with the Gli-Luc construct as described above) in a growth medium of MEM/Sodium Pyruvate w/10% MS, and an assay medium of MEM/Sodium Pyruvate w/0.5% FBS. OCT-SHH was added to reach a final concentration of 1 μg/ml.

For assay [3], the system named is hedgehog signaling pathway. Nature of the assay: Colon cancer cells co-cultured with 10T(S12) reporter cells, luciferase activity. The following applies: 20,000 colon cancer cells mixed with 10,000 10T(S12) cells, 72 hrs incubation. On the procedure:
20,000 colon cancer cells were mixed with 10,000 10T(S12) cells (described above), and the mixture was added to each well in a 96-well plate. A subject compound or control vehicle was added to the culture on the next day. After 72 hrs of incubation, the cells were lysed for measuring the luciferase activity. […] FIG. 35 depicts the comparative inhibition of hedgehog-induced activation in S12 cells for the antibodies 1E6 and 5E1 and compound A, and the comparative inhibition of endogenous hedgehog activity in colon cancer cells for these compositions.

SMILES strings stand for the structures.

`Cc1ccc(C(=O)Nc2ccc(Cl)c(-c3nc4ccccc4[nH]3)c2)cc1[N+](=O)[O-]` [J]: in assay [1], the half-inhibitory concentration (IC50) – broadly, the midpoint of a concentration-inhibition curve – was < 5000 nM.

Regarding `Cc1ccccc1OCC(=O)Nc1ccc(Cl)c(-c2nc3ccccc3[nH]2)c1` [E], the IC50 in assay [1] is < 5000 nM.

Regarding `COc1cc(OC)cc(C(=O)Nc2ccc(Cl)c(-c3nc4c(C)cccc4[nH]3)c2)c1` [Z], the IC50 in assay [2] was < 50 nM.

With `Cc1ccc2nc(-c3cc(NC(=O)c4ccc5c(c4)OCCO5)ccc3Cl)[nH]c2c1C` [X], the IC50 in assay [2] is < 50 nM.

As to `COc1cc(OC)cc(C(=O)Nc2ccc(Cl)c(-c3nc4ccccc4[nH]3)c2)c1` [Compound A], the “inhibition of luciferase activity compared to vehicle” value in assay [3] is on record as “able to inhibit the lucferase activity”. Moreover, the IC50 in assay [2] was < 50 nM.

For `COc1ccc(C(=O)Nc2ccc(Cl)c(-c3nc4cc(C)c(C)cc4[nH]3)c2)cc1Cl` [Y], the IC50 in assay [2] was < 50 nM.

Turning to `COc1cc(C(=O)Nc2ccc(Cl)c(-c3nc4ccccc4[nH]3)c2)cc(OC)c1OC` [L], the concentration for half-maximal inhibition (IC50) in assay [1] was < 5000 nM.

Regarding `O=C(Nc1ccc(Cl)c(-c2nc3ccccc3[nH]2)c1)c1cccnc1` [B], the IC50 in assay [2] was < 50 nM.

`O=C(Nc1ccc(Cl)c(-c2nc3ccccc3[nH]2)c1)c1ccc2c(c1)OCCO2` [C]: the IC50 in assay [2] is < 500 nM.

Take `O=C(Nc1ccc(Cl)c(-c2nc3cc(C(F)(F)F)ccc3[nH]2)c1)c1ccc2c(c1)OCCO2` [W]: in assay [2], the IC50 was < 10 nM.
